The values that follow come from ChEMBL document CHEMBL5331097, “Synthesis and evaluation of a new class of MIF-inhibitors in activated macrophage cells and in experimental septic shock in mice” (Eur J Med Chem, 2023).

For experiment [1], the target named is T1, Macrophage migration inhibitory factor (Homo sapiens, UniProt P14174).
T1 sequence (P14174 whole entry): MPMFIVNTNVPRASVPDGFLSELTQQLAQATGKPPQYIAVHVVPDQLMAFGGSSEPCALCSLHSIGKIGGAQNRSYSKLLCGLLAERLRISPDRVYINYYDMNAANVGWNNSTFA
The experiment in a line: Inhibition of human recombinant MIF enolase activity using phenylpyruvate as substrate. As to conditions: for pIC50: read-out: IC50.

In experiment [2] the target is T1, Macrophage migration inhibitory factor. As to the kind of experiment: Inhibition of human recombinant MIF ketonase activity using phenylpyruvate as substrate. The settings on record: for pIC50: read-out: IC50.
Experiment [3] has as its system RAW264.7. The experiment in a line: Reduction of macrophage activation in LPS induced mouse RAW264.7 cells assessed as reduction in TNF-alpha production at 50 uM pretreated for 30 mins followed by LPS addition after 24 hrs by ELISA method. As to conditions: time 24.5 hrs. The format is functional, cell-based. In general terms: In an ELISA, binding on a coated surface is turned into a signal by an enzyme label.

Experiment [4] concerns RAW264.7. As to the kind of experiment: Reduction of macrophage activation in LPS induced mouse RAW264.7 cells assessed as reduction in IL-6 production at 50 uM pretreated for 30 mins followed by LPS addition after 24 hrs by ELISA method. The format is functional, cell-based. As to conditions: time 24.5 hrs.
The subject of experiment [5] is RAW264.7. As to the kind of experiment: Reduction of macrophage activation in LPS induced mouse RAW264.7 cells assessed as NF-kappaB activation at 50 uM pretreated for 30 mins followed by LPS addition measured after 24 hrs. Type of experiment: functional, cell-based. As to conditions: time 24.5 hrs.
In experiment [6] the test system is RAW264.7. As to the kind of experiment: Antiproliferative activity against LPS induced mouse RAW264.7 cells assessed as decrease in number of living cells at 50 uM pretreated for 30 mins followed by LPS addition measured after 24 hrs relative to control. Type of experiment: functional. Further details: scale not given: the % may be the effect or the level left. As to conditions: time 24.5 hrs.

Experiment [7] relates to RAW264.7. As to the kind of experiment: Antiinflammatory activity in LPS induced mouse RAW264.7 cells assessed as reduction of nitrite production at 50 uM pretreated for 30 mins followed by LPS addition measured after 24 hrs measured by Griess reagent method. The format is functional, cell-based. As to conditions: time 24.5 hrs.
In experiment [8] the test system is RAW264.7. As to the kind of experiment: Antiproliferative activity against LPS induced mouse RAW264.7 cells at 50 uM measured after 24 hrs. Type of experiment: functional, cell-based.
A further experiment deals with Mus musculus. The experiment in a line: Protection against C57BL/6 mouse assessed as increase in LPS-induced colonic temperature at 1.8 mg/kg, ip for 30 mins followed by LPS addition measured from 130 to 360 mins. Type of experiment: functional, organism-based. As to conditions: time 160-390 min.
Experiment [9] deals with RAW264.7. The experiment in a line: Reduction of macrophage activation in LPS induced mouse RAW264.7 cells assessed as NF-kappaB activation at 50 uM pretreated for 30 mins followed by LPS addition measured after 24 hrs relative to control. The settings on record: time 24.5 hrs. The format is functional. Further details: scale not given: the % may be the effect or the level left.

Experiment [10] has as its system RAW264.7. The experiment in a line: Antiinflammatory activity in LPS induced mouse RAW264.7 cells assessed as reduction of ROS production at 50 uM pretreated for 30 mins followed by LPS addition measured after 24 hrs measured by fluorescence based assay. Type of experiment: functional, cell-based. As to conditions: time 24.5 hrs.

Molecules are shown by their SMILES. pIC50: −log10 of the molar value. Active and inactive are the calls of the source. No cut-off for these calls is given here.

For orientation: pIC50 means −log10 of the IC50, conventionally taken in molar units. Regarding `O=C1/C(=C/c2ccc3c(c2)OCO3)CCc2cc(O)ccc21`, the pIC50 in [1] was 4.18; in experiment [2], 4.66.
On to `O=C1/C(=C/c2ccccc2)COc2cc(O)ccc21`, for which the pIC50 in experiment [1] was 4.63; in experiment [2], 4.37.
For the molecule `Cc1ccc(/C=C2\CCc3cc(O)ccc3C2=O)cc1`, the results for the pIC50 in experiment [1] and in experiment [2] were 4.15 and 4.29, respectively.
As to `COc1ccc2c(c1)CC/C(=C\c1cccnc1)C2=O`, the pIC50 in experiment [1] was 4.09; in experiment [2] it was 4.20.
Consider `COc1ccc(/C=C2\Cc3ccccc3C2=O)cc1O`, for which the outcome with RAW264.7 [3] and in the experiment with RAW264.7 [4] was Active. The pIC50 was 5.88 in experiment [1] and 5.31 in experiment [2]. Besides, the outcome in the experiment on RAW264.7 [5] was inactive. The Activity in the experiment with RAW264.7 [6] amounted to 80.46%.
As to `COc1ccc2c(c1)CC/C(=C\c1ccccc1)C2=O`, the pIC50 is 3.90 in [1] and 4.31 in [2].
Consider `O=C1/C(=C/c2cccnc2)CCc2cc(O)ccc21`, for which the pIC50 in experiment [1] was 4.48; in experiment [2] it was 4.14.
Consider `O=C1/C(=C/c2ccccc2O)CCc2cc(O)ccc21`, for which the pIC50 in [1] is 4.30; in experiment [2], 4.41.
For `O=C1/C(=C/C=C/c2ccccc2)CCc2cc(O)ccc21`, the IC50 result in experiment [1] is “Not Active”. For the same molecule, the pIC50 in experiment [2] is 4.45.
In the case of `COc1ccc2c(c1)CC/C(=C\c1ccc(O)c(O)c1)C2=O`, the pIC50 in experiment [1] is 3.88; in experiment [2], 4.11.
Take `COc1ccc2c(c1)C(=O)/C(=C/c1ccc(O)c(OC)c1)C2`: the pIC50 in experiment [1] is 4.42; in [2], 4.70.
Take `O=C1/C(=C/c2ccccn2)CCc2cc(O)ccc21`: the pIC50 was 4.18 in experiment [1] and 4.49 in experiment [2].
Regarding `COc1cc(/C=C2\Cc3ccccc3C2=O)ccc1O`, the pIC50 is 4.84 in [1] and 4.02 in experiment [2].
For `O=C1/C(=C/c2cccc(O)c2)CCc2cc(O)ccc21`, the values for the pIC50 in experiment [1] and in [2] were 3.95 and 4.71, respectively.
For `O=C1/C(=C/c2ccc(O)cc2)CCCc2ccccc21`, the figures for the pIC50 in experiment [1] and in [2] were 4.86 and 4.17, respectively.
Turning to `O=C1/C(=C/c2ccc(O)cc2)COc2ccccc21`, the negative logarithm of the IC50 (pIC50) is 4.14 in [1] and 3.90 in experiment [2].
As to `COc1ccc2c(c1)CC/C(=C\c1ccc(O)c(OC)c1)C2=O`, the pIC50 in experiment [1] is 4.28; in experiment [2], 4.31.
The matching figures for `O=C1/C(=C/c2ccccc2O)CCc2ccccc21`: 2.94 and 4.53.
As for `O=C1/C(=C/c2ccc(O)cc2)CS(=O)(=O)c2ccccc21`, the pIC50 in experiment [1] was 3.99; in [2], 4.48.
On the same counts, the results for `COc1cc(/C=C2\CCc3cc(O)ccc3C2=O)ccc1O` are 4.51 and 4.52.
Consider `O=C1/C(=C/c2ccco2)CCc2cc(O)ccc21`, for which the negative-log IC50 (pIC50) in experiment [1] is 4.42; in experiment [2] it was 4.50.
With `O=C1/C(=C/c2ccc(O)cc2)CCc2cc(O)ccc21`, the IC50 result in [1] is “Not Active”. Also, the pIC50 in experiment [2] is 4.62.
Regarding `CCN(CC)CCOc1ccc(/C=C2\CCc3cc(O)ccc3C2=O)cc1`, the negative-log IC50 (pIC50) is 4.38 in [1] and 5.06 in experiment [2].
Turning to `COc1ccc(/C=C2\CCc3cc(O)ccc3C2=O)cc1`, the pIC50 in experiment [1] is 4.36; in experiment [2], 4.17.
The matching figures for `O=C1/C(=C/c2ccc[nH]2)CCc2cc(O)ccc21`: 4.09 and 3.79.
Regarding `N#Cc1ccc(/C=C2\CCc3cc(O)ccc3C2=O)cc1`, the IC50 entry in experiment [1] is reported as “Not Active”. In addition, the pIC50 in experiment [2] is 4.17.
Regarding `CN(C)c1ccc(/C=C2\CCc3cc(O)ccc3C2=O)cc1`, the values for the pIC50 in experiment [1] and in [2] were 4.40 and 4.59, respectively.
For `O=C1/C(=C/c2c[nH]c3ccccc23)CCc2cc(O)ccc21`, the pIC50 in experiment [1] is 3.68; in experiment [2], 4.22.
For `COc1cc(/C=C2\CCc3cc(OC)c(OC)cc3C2=O)ccc1O`, the negative-log IC50 (pIC50) in experiment [1] was 3.98. The IC50 entry in experiment [2] is “Not Active”.
For the molecule `O=C1/C(=C/c2cc(O)cc(O)c2)CCc2ccccc21`, the pIC50 in experiment [1] was 4.60; in experiment [2], 4.19.
As to `O=C1/C(=C/c2cccc(O)c2O)Cc2ccccc21`, the pIC50 was 4.41 in experiment [1] and 5.69 in experiment [2].
As for `COc1ccc2c(c1)CC/C(=C\c1ccc(C)cc1)C2=O`, in experiment [1], the negative-log IC50 (pIC50) was 2.58. In addition, in experiment [2], the IC50 entry is given as “Not Active”.
Consider `O=C1/C(=C/c2cccc(O)c2)CCc2ccccc21`, for which the pIC50 in experiment [1] is 4.44; in experiment [2], 4.60.
With `COc1ccc2c(c1)C(=O)/C(=C/c1ccc(OC)c(O)c1)C2`, the figures for the pIC50 in experiment [1] and in experiment [2] were 4.13 and 3.69, respectively.
`O=C1/C(=C/c2ccc(O)cc2)COc2cc(O)ccc21`: the outcome with RAW264.7 [3], in the experiment with RAW264.7 [4] and in the experiment on RAW264.7 [7] was Active. In addition, the pIC50 in experiment [1] is 5.06; in [2], 5.81. Besides, the result in the experiment with RAW264.7 [5] and in the experiment on RAW264.7 [8] was inactive.
Turning to `CC(C)c1ccc(/C=C2\CCc3cc(O)ccc3C2=O)cc1`, the pIC50 in experiment [1] was 5.35; in [2], 5.67.
Regarding `COc1cc(/C=C2\CCc3ccccc3C2=O)ccc1O`, the negative-log IC50 (pIC50) in experiment [2] is 4.29.
Regarding `COc1ccc2c(c1)C/C(=C\c1cccc(O)c1O)C2=O`, the pIC50 in experiment [1] is 4.54; in experiment [2], 4.17.
With `O=C1/C(=C/c2cccs2)CCc2cc(O)ccc21`, the pIC50 in experiment [1] was 5.19; in [2], 4.29.
In the case of `O=C1/C(=C/c2ccc(O)cc2)CCc2ccccc21`, the result with RAW264.7 [3], with Mus musculus and in the experiment on RAW264.7 [4] was Active. The pIC50 in [1] was 5.71; in experiment [2] it was 4.31. The result with RAW264.7 [8] was inactive. Also, the Activity with RAW264.7 [9] is listed as about 35%.
Turning to `O=C1/C(=C/c2ccc(O)cc2)CSc2ccccc21`, the pIC50 was 3.08 in [1] and 4.00 in [2].
On to `COc1cc(/C=C2\CCc3cc(O)ccc3C2=O)cc(OC)c1OC`, for which the pIC50 is 3.32 in experiment [1] and 4.19 in experiment [2].
`COc1ccc2c(c1)CC/C(=C\c1ccc(O)cc1)C2=O`: the pIC50 in experiment [1] is 5.53; in experiment [2], 5.52.
For `O=C1/C(=C/c2ccccc2)CCc2cc(O)ccc21`, the outcome in the experiment with RAW264.7 [3], with RAW264.7 [4] and in the experiment on RAW264.7 [7] was Active. In addition, the negative logarithm of the IC50 (pIC50) is 5.70 in experiment [1] and 5.69 in [2]. Besides, the result in the experiment with RAW264.7 [10] and in the experiment with RAW264.7 [8] was inactive. The Activity in the experiment with RAW264.7 [9] was about 35%.
`COc1ccc2c(c1)CC/C(=C\c1ccncc1)C2=O`: the pIC50 was 3.97 in [1] and 4.23 in experiment [2].
Regarding `O=C1/C(=C/c2ccc(O)c(O)c2)Cc2ccccc21`, in experiment [1], the IC50 result is reported as “Not Active”. Besides, in experiment [2], the pIC50 is 4.89.
For `COc1ccc2c(c1)C(=O)/C(=C/c1cccc(O)c1O)C2`, the pIC50 in [1] is 4.77; in experiment [2] it was 5.01.
The matching figures for `O=C1/C(=C/c2ccccc2O)Cc2ccccc21`: 3.40 and 4.39.
For the molecule `O=C1/C(=C/c2ccc(O)cc2)Cc2ccccc21`, the outcome in the experiment on RAW264.7 [3] and in the experiment with RAW264.7 [4] was Active. The negative-log IC50 (pIC50) in experiment [1] is 5.91; in experiment [2], 6.06. The outcome in the experiment on RAW264.7 [5] and with RAW264.7 [8] was inactive.
